Measurements reported in patent US11697689B2, “Use of antibody against O-acetylated GD2 ganglioside to improve the therapeutic potential of drugs” (OGD2 PHARMA, priority 2016, dated 2023).
pEC50: −log10 of the molar value. Like-named read-outs stand apart in the source and are kept apart here.

How the values were obtained:
[1] = system: DUGAn glioblastoma primary cells; assay: MTT assay, temozolomide with or without mAb 8B6; assay type: cell-based; settings: Homo sapiens, temozolomide alone, 72 hours
Procedure: (§1) Tumor specimens were collected from patients with a histologic diagnosis of GBM. Tumors were harvested at the time of surgical resection and immediately put into culture after dissociation of the tumors using the gentleMACs™ Dissociator (Miltenyi) according to the manufacturer's instructions.
(§2) Equivalent culture media volume was added to control wells. […] Cells were exposed to test agents for 72 hours. Following the exposure to test agents, 15 μl of MTT reagent was added to each well.
(§3) Cell viability was measured using the MTT assay and half maximal effective concentration (EC50) was calculated as previously disclosed.

[2] = system: DUASOII glioblastoma primary cells; assay: MTT assay, temozolomide with or without mAb 8B6; assay type: cell-based; settings: Homo sapiens, temozolomide alone, 72 hours
Procedure: as §1, §2, §3

[3] = system: HARCI glioblastoma primary cells; assay: MTT assay, temozolomide with or without mAb 8B6; assay type: cell-based; settings: Homo sapiens; HARCl; temozolomide alone; 72 hours
Procedure: as §1, §2, §3

[4] = system: GUITh glioblastoma primary cells; assay: MTT assay, temozolomide with or without mAb 8B6; assay type: cell-based; settings: Homo sapiens, temozolomide alone, 72 hours
Procedure: as §1, §2, §3

[5] = system: GLIO 5 glioblastoma primary cells; assay: MTT assay, temozolomide with or without mAb 8B6; assay type: cell-based; settings: Homo sapiens, temozolomide alone, 72 hours
Procedure: as §1, §2, §3

[6] = system: AMBMa glioblastoma primary cells; assay: MTT assay, temozolomide with or without mAb 8B6; assay type: cell-based; settings: Homo sapiens, temozolomide alone, 72 hours
Procedure: as §1, §2, §3

LAN-1 cells [7] = assay: MTT cell proliferation assay, drug with or without mAb 8B6; assay type: cell-based, human; settings: for pEC50: Homo sapiens, 48 hours
Procedure: (§4) The antiproliferative activity of the anti-cancer agents was evaluated using the MIT Cell Proliferation Assay Kit (Roche Diagnostic, Indianapolis, USA). The MTT assay is based on the reduction of yellow tetrazolium MIT (3-(4,5-dimethylthiazolyl-2)-2,5-diphenyltetrazolium bromide) by metabolically active cells forming purple formazan crystals. The purple formazan is solubilized with detergent and quantified spectrophotometrically at 570 nm.
(§5) Cells in the log phase of growth were seeded into 96-well (5×10^3 for LAN-1 and NXS2 cells; 1×10^4 for IMR5 and LAN-5 cells) treated plates in 100 μl of complete media. The cells were allowed to attach during an overnight incubation prior to treating with test agents. […] Equivalent culture media volume was added to control wells. Three conditions were used: anti-cancer agent alone, mAb 8B6 alone, mAb 8B6+anti-cancer agent. Cells were exposed to test agents for 48 hours. Following the exposure to test agents, 15 μl of MIT reagent was added to each well. The plates were returned to the incubator for four hours. Following the incubation period, kit supplied detergent reagent (100 μl) was added to all wells. The plates were wrapped in plastic wrap to prevent evaporation and allowed to sit at room temperature in the dark overnight. The absorbance at 570 nm was measured the following day using a iMark™ Microplate Absorbance Reader plate reader (Bio-Rad). Assays were performed in quadruplicate and experiments were repeated three times. […] The median-effect equation used by CompuSyn® software derived from the mass-action law principle at equilibrium steady state. […] Percent of Control values were calculated by dividing the absorbance values for each test well by the No Drug Control average and multiplying by 100.
(§6) Combination data was analyzed using CompuSyn® software to calculate Combination Index values to assess synergy. […] The dosage, fraction affected and molar ratio of compounds tested in combination were entered into the CompuSyn® software for evaluation of the presence/absence of synergy. CompuSyn® assigns a Combination Index value which rates the level of compounds' inhibiting 50% of the cell proliferation. […] See Chou, PHARMACOL.
(§7) NXS2 cells were grown in DMEM 4.5 g/L de glucose with 10% heat-inactivated fetal calf serum, 2 mM L-Glutamine, 100 units/ml penicillin, and 100 μg/ml streptomycin, at 37° C. in 5% CO2.

IMR5 cells [8] = assay: as above; assay type: cell-based, human; settings: for pEC50: Homo sapiens, 48 hours
Procedure: as §4, §5, §6, §7

NXS2 cells [9] = assay: as above; assay type: cell-based, murine; settings: for pEC50: Mus musculus, 48 hours
Procedure: as §4, §5, §6, §7

LAN-5 cells [10] = assay: as above; assay type: cell-based, human; settings: for pEC50: Homo sapiens, 48 hours
Procedure: Equivalent culture media volume was added to control wells. […] Cells were exposed to test agents for 48 hours.

[11] = system: NXS2 neuroblastoma experimental liver metastasis; assay: Murine NXS2 neuroblastoma experimental liver metastasis model; assay type: in vivo, A/J mice; settings: day 28 after NXS2 inoculation; mAb 8B6 150 μg cumulative i.v.; isotretinoin 10 mg/kg per os; topotecan 0.36 mg/kg i.p.; doxorubicin 1 mg/kg i.p.; vehicle 2.5±0.18 g; mean±SEM
Procedure: Mice (n=10/group) were inoculated with 2.5×10^5 NXS2 mouse neuroblastoma cells by i.v. injections. 8B6 mAb treatment was started on day 3 after tumor cell inoculation twice a week for 3 consecutive weeks (cumulative dose=150 μg, A-C). All chemotherapeutic treatments were started at day 10 post-tumor inoculation. Panel A: isotretinoin was given at 10 mg/kg, per os, five times weekly for 2 weeks. […] Panel C: doxorubicin was given by i.p. injections at 1 mg/kg five times weekly for 2 weeks. Mice were euthanized 28 days post-tumor inoculation. Anti-tumor efficacy was evaluated by determining the liver weight on the fresh specimen compared to the mice treated with vehicle only. The liver weight is indicative of hepatic metastasis number. The y-axis starts at 0.8 g corresponding to the average normal liver weight. Data are presented as the mean±SEM.
We inoculated 2.5×10^5 tumor cells by tail vein in PBS. […] Anti-OAcGD2 mAb 8B6 treatment was started at Day 3 after tumor cells injection. Mice received by i.v. injection twice a week 25 μg mAb 8B6 for 3 consecutive weeks; (day 3, 7, 10, 14, 17 and 21; total dose=150 μg). Isotretinoin was given orally diluted in Ora-Plus© at 10 mg/kg daily for 2 consecutive weeks (on days 10-14 and 17-21). […] Doxorubicin was given by i.p. injection at 1 mg/kg daily for two weeks (on days 10-14 and 17-21). Mice were sacrificed after 28 days post inoculation, and anti-tumor efficacy was evaluated by liver weight of the fresh specimen as well as hepatic metastasis number. • 6.2—Results
Anti-cancer agents were given at low doses as previously reported in the literature in order to minimize related side effects. Three days after i.v. NSX2 tumor cell inoculation, ten mice were assigned to treatment with single agent, or combination of mAb 8B6 and anti-cancer agents as described previously. On day 28 after tumor cell inoculation, we determined the number of liver metastases and the liver weight after mice euthanasia.

[12] = Systemic tolerability, body weight over the treatment period; assay type: in vivo, A/J mice; settings: same groups and doses as the NXS2 liver metastasis study
Source text: Mean weight of group of mice (n=10) presented in FIG. 6 at day 0 was defined as 100% weight. Weight in each group remained stable for the period of treatment. Δ, mice treated with mAb 8B6; ◯, mice treated with anti-cancer agent; □, mice treated with chemotherapeutic drug plus mAb 8B6.
Weight loss is used as a sensitive marker for health monitoring. We therefore performed a parallel analysis of the body weight over the treatment period. […] The body-weight difference between the two groups treated with doxorubicin compared to the non-doxorubicin group, however, fails to be significant during the treatment period (p>0.05).

LAN-1 cells [13] = assay: Incorporation of anti-cancer agents in cells, flow cytometry; assay type: cell-based, human; settings: 5-FU and cisplatin 1.52 μM, doxorubicin […], mAb 8B6 40 μg/ml, 30 minutes at 37° C.
Procedure: FIG. 3: Internalization of 5-FU, Cisplatin and doxorubicin in neuroblastoma cells. LAN-1 cells were treated with 5-FU (1.52 μM)—Panel A, or Cisplatin (1.52 μM)—Panel B, or doxorubicin (4.7 μM)—Panels C and D with combinations of isotype-matched negative control mouse IgG3 (40 μg/ml) or anti-OAcGD2 mAb 8B6, anti-OAcGD2 mAb c8B6.14b, anti-OAcGD2 mAb c8B6.15b (40 μg/ml). Anti-cancer agents and mAb were incubated during 30 minutes at 37° C. Neuroblastoma cells were fixed with PFA 4% before FACS acquisition. Positive control was performed by treatment of fixed LAN-1 cells with saponin 0.05% in combination with anti-cancer agents during 30 minutes. Incorporation of anti-cancer agents in tumor cells was assessed by flow cytometry (excitation with a 535 nm laser) and results are expressed in percentage of cells having incorporated anti-cancer agent in total cell population.
Combinations of anti-OAcGD2 mAb 8B6 with other anti-cancer agents were also assayed on LAN-1 neuroblastoma cell line. In this experiment, incorporation of 5-FU, Cisplatin and doxorubicin within the cells in the presence of mAb 8B6 or CTRL-(IgG) was detected using flow cytometry (excitation with a 535 nm laser). Anti-cancer agents and mAb were incubated during 30 minutes at 37° C.

[14] = system: neuroblastoma cell lines NXS2, IMR5, LAN-1 and LAN-5; settings: NXS2, IMR5, LAN-1, LAN-5
Procedure: as §4
Cells in the log phase of growth were seeded into 96-well (5×10^3 for LAN-1 and NXS2 cells; 1×10^4 for IMR5 and LAN-5 cells) treated plates in 100 μl of complete media. The cells were allowed to attach during an overnight incubation prior to treating with test agents. […] Equivalent culture media volume was added to control wells. Three conditions were used: anti-cancer agent alone, mAb 8B6 alone, mAb 8B6+anti-cancer agent. Cells were exposed to test agents for 48 hours. Following the exposure to test agents, 15 μl of MIT reagent was added to each well. […] The absorbance at 570 nm was measured the following day using a iMark™ Microplate Absorbance Reader plate reader (Bio-Rad). […] Percent of Control values were calculated by dividing the absorbance values for each test well by the No Drug Control average and multiplying by 100.
Combination data was analyzed using CompuSyn® software to calculate Combination Index values to assess synergy. […]

NXS2 cells [15] = assay: OAcGD2 expression (mAb 8B6 binding) after drug exposure, flow cytometry; settings: isotretinoin 75, topotecan 0.5, doxorubicin 3 μM (Table 1), mean ± SD
LAN-1 cells [16] = assay: as above; settings: isotretinoin 40, topotecan 5, doxorubicin 3 μM (Table 1), mean ± SD, n = 3, untreated 12.1 ± 0.1
IMR5 cells [17] = assay: as above; settings: isotretinoin 40, topotecan 1, doxorubicin 7 μM (Table 1), mean ± SD, n = 3, untreated 14.6 ± 0.4
LAN-5 cells [18] = assay: as above; settings: isotretinoin 8, topotecan 1, doxorubicin 5 μM (Table 1), mean ± SD, n = 3, untreated 13.2 ± 0.7
[19] = LAN1, drug alone, read-out: EC50
[20] = LAN1, with mAb 8B6 40 μg/ml, read-out: EC50 with mAb 8B6
[21] = IMR-5, drug alone, read-out: EC50
[22] = IMR-5, with mAb 8B6 40 μg/ml, read-out: EC50 with mAb 8B6
[23] = with mAb 8B6 40 μg/ml, read-out: EC50 with mAb 8B6
[24] = LA-N-5, drug alone, read-out: EC50
[25] = LA-N-5, with mAb 8B6 40 μg/ml, read-out: EC50 with mAb 8B6

Row | Structure (SMILES) | pEC50 (LAN-1 cells [7]; [19]) | pEC50 (LAN-1 cells [7]; [20]) | pEC50 (IMR5 cells [8]; [21]) | pEC50 (IMR5 cells [8]; [22]) | pEC50 (NXS2 cells [9]; drug alone, read-out: EC50) | pEC50 (NXS2 cells [9]; [23]) | pEC50 (LAN-5 cells [10]; [24]) | pEC50 (LAN-5 cells [10]; [25]) | mean liver weight [11] [g] | body weight over the treatment period [12] | cells positive for the anti-cancer agent when incubated with mAb 8B6 versus agent alone and CTRL-(IgG) (LAN-1 cells [13]) | Expression level of OAcGD2 (MFI ratio mAb 8B6 / mAb 7H2) after 48 hours exposure (NXS2 cells [15]; n = 3, untreated 7.3 ± 0.9) | Expression level of OAcGD2 (MFI ratio mAb 8B6 / mAb 7H2) after 48 hours exposure (LAN-1 cells [16]) | Expression level of OAcGD2 (MFI ratio mAb 8B6 / mAb 7H2) after 48 hours exposure (IMR5 cells [17]) | Expression level of OAcGD2 (MFI ratio mAb 8B6 / mAb 7H2) after 48 hours exposure (LAN-5 cells [18]) | also measured
1 | Cn1nnc2c(C(N)=O)ncn2c1=O [temozolomide] | – | – | – | – | – | – | – | – | – | – | – | – | – | – | – | pEC50 [1]: 2.95; pEC50 [2]: 3.23; pEC50 [3]: 1.88; pEC50 [4]: 2.50; pEC50 [5]: 2.80; pEC50 [6]: 3.11
2 | CC[C@@]1(O)C(=O)OCc2c1cc1n(c2=O)Cc2cc3c(CN(C)C)c(O)ccc3nc2-1 [Topotecan, topotecan] | 6.11 | 7.82 | 7.96 | 8.15 | 6.35 | 6.82 | 4.91 | 8.40 | 1.22 ± 0.09 | no loss of body weight | – | – | – | – | – | –
3 | COc1cccc2c1C(=O)c1c(O)c3c(c(O)c1C2=O)C[C@@](O)(C(=O)CO)C[C@@H]3O[C@H]1C[C@H](N)[C@H](O)[C@H](C)O1 [Doxorubicin, doxorubicin] | 5.33 | 7.85 | 5.20 | 8.00 | 5.56 | 7.80 | 5.68 | 6.89 | 1.75 ± 0.09 | a loss of body weight after day 17 | more cells were positive | 6.48 ± 2.28 | 13.76 ± 1.8 | 15.24 ± 0.21 | 14.36 ± 1.4 | Combination index 50 Values (LAN-1 cells [7]; CompuSyn, below 1 = synergy): 0.05; Combination index 50 Values (IMR5 cells [8]; CompuSyn, below 1 = synergy): 0.10; median combination index values across the tested neuroblastoma cell lines [14]: ≤ 0.30; Expression level of OAcGD2 (MFI ratio mAb 8B6 / mAb 7H2) after 48 hours exposure (NXS2 cells [15]; n = 3, untreated 7.3 ± 0.9, listed as doxorubicin): remained unchanged; Combination index 50 Values (NXS2 cells [9]; CompuSyn, below 1 = synergy): 0.30; Combination index 50 Values (LAN-5 cells [10]; CompuSyn, below 1 = synergy): 0.16
4 | CC1=C(/C=C/C(C)=C/C=C/C(C)=C\C(=O)O)C(C)(C)CCC1 [Isotretinoin, isotretinoin] | 5.13 | 5.37 | 4.48 | 4.62 | 4.12 | 4.23 | 4.43 | 4.50 | 2.0 ± 0.24 | no loss of body weight | – | 7.5 ± 1.1 | 12.0 ± 0.1 | 19.2 ± 0.8 | 16.8 ± 0.7 | Expression level of OAcGD2 (MFI ratio mAb 8B6 / mAb 7H2) after 48 hours exposure (NXS2 cells [15]; n = 3, untreated 7.3 ± 0.9, listed as isotretinoin): remained unchanged
5 | O=c1[nH]cc(F)c(=O)[nH]1 [5-FU, 5-Fluorouracil] | – | – | – | – | – | – | – | – | – | – | more cells were positive | – | – | – | – | –
6 | N.N.[Cl][Pt][Cl] [cisplatin] | – | – | – | – | – | – | – | – | – | – | more cells were positive | – | – | – | – | –
